Reference: patent US12233069B2, “Oral solid tablet comprising Bruton's Tyrosine Kinase inhibitor and preparation method therefor” (BEIGENE SWITZERLAND GMBH, priority 2019, dated 2025)
Entries after “also recorded” stand apart in the source; their conditions may differ.

Key:
[1] = Hygroscopicity of the active pharmaceutical ingredient; type: physicochemical
[2] = Solubility / biopharmaceutical classification system class; type: physicochemical

hygroscopicity [1]: slightly hygroscopic
SMILES: C=CC(=O)N1CCC([C@@H]2CCNc3c(C(N)=O)c(-c4ccc(Oc5ccccc5)cc4)nn32)CC1 [Zanubrutinib, (S)-7-[4-(1-acryloylpiperidine)]-2-(4-phenoxyphenyl)-4,5,6,7-tetrahydropyrazolo[1,5-a] pyrimidine-3-carboxamide]
biopharmaceutical classification system class [2]: class II (low solubility, and high permeability) | solubility ([2]; active pharmaceutical ingredient): poor solubility; also recorded: pH-dependent solubility
